Counter-ions that a name gives are not always drawn.

The target of one test is T1, recombinant human CXCR2 (Homo sapiens, UniProt P25025).
T1 construct: TEV protease site; Gal4-VP16 transcription factor
T1 sequence (P25025 1-360): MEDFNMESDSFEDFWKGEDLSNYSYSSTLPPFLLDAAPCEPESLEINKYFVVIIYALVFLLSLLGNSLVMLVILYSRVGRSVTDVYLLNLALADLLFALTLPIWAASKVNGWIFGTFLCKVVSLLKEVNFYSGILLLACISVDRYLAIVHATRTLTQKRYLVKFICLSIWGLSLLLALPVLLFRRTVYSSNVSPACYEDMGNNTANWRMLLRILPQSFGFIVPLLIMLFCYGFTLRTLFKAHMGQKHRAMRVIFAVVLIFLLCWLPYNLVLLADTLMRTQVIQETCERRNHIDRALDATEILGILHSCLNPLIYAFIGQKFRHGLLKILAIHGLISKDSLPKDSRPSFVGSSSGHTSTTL
As to the kind of experiment: CXCR2 Tango assay. Format: cell-based. The note with it: mean pIC50 of multiple test results; stimulated with 80 nM hCXCL1; reporter gene blue/green emission ratio; read-out: pIC50 (CXCR2 Tango assay) (converted). Put shortly: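 Mean pIC50 comes from sigmoidal fits of the blue/green (460/530 nm) CCF4-AM ratio, normalized between hCXCL1-stimulated and DMSO controls. Compounds in 10-point dose response were incubated overnight at 37 °C with recombinant human CXCR2 Tango cells (~10,000/well) and 80 nM hCXCL1, with reporter read-out via arrestin-TEV release of Gal4-VP16.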
Background: In a reporter assay the amount or activity of a reporter protein is the signal.
With `COC1CCCCC1S(=O)(=O)c1c(Cl)ccc(NC(=O)NC2CCC=C2C)c1O` (racemic) [Compound 150, (±)trans-1-(4-chloro-2-hydroxy-3-((2-methoxycyclohex-yl)sulfonyl)phenyl)-3-((R)-2-methylcyclopent-2-en-1-yl)urea], the IC50 was at most 10 nM.
On to `CC(C)S(=O)(=O)c1c(Cl)ccc(NC(=O)NC2C=CCC2)c1O` (stereo not drawn) [Compound 18, 1-(4-chloro-2-hydroxy-3-(isopropylsulfonyl)phenyl)-3-(cyclopent-2-en-1-yl)urea], for which the IC50 was at most 10 nM.
In the case of `CC1=CCC[C@H]1NC(=O)Nc1ccc(Cl)c(S(=O)(=O)[C@]2(C)CCOC2)c1O` [Compound 196, 1-(4-chloro-2-hydroxy-3-(((R)-3-methyltetrahydrofuran-3-yl)sulfonyl)phenyl)-3-((R)-2-methylcyclopent-2-en-1-yl)urea], the IC50 is at most 10 nM.
On the same count and under the same terms, to `CC(C)(C(F)(F)F)S(=O)(=O)c1c(Cl)ccc(NC(=O)NC2C=CCC2)c1O` (stereo not drawn) [Compound 1, 1-(4-chloro-2-hydroxy-3-((1,1,1-trifluoro-2-methylpropan-2-yl)sulfonyl)phenyl)-3-(cyclopent-2-en-1-yl)urea] belongs at most 10 nM.
Same read-out and setting: to `O=C(Nc1ccc(Cl)c(S(=O)(=O)[C@H]2CCOC2)c1O)N[C@@H]1CCC=C1Cl` [Compound 166, 1-(4-chloro-2-hydroxy-3-(((S)-tetrahydrofuran-3-yl)sulfonyl)phenyl)-3-((R)-2-chlorocyclopent-2-en-1-yl)urea] belongs at most 1 nM; to `COCC(C)(C)S(=O)(=O)c1c(Cl)ccc(NC(=O)NC2CCC=C2C)c1O` (stereo not drawn) [Compound 156, 1-(4-chloro-2-hydroxy-3-((1-methoxy-2-methylpropan-2-yl)sulfonyl)phenyl)-3-(2-methylcyclopent-2-en-1-yl)urea], at most 10 nM.
Same read-out and setting: under `[2H]C([2H])([2H])C1(S(=O)(=O)c2c(Cl)ccc(NC(=O)N[C@@H]3CCC=C3Cl)c2O)CCOC1` (stereo partly drawn) [Compound 183, 1-(4-chloro-2-hydroxy-3-((3-(d3-methyl)tetrahydro-furan-3-yl)sulfonyl)phenyl)-3-((R)-2-chlorocyclopent-2-en-1-yl)urea] stands at most 10 nM.
As to `CCC1=CCCC1NC(=O)Nc1ccc(Cl)c(S(=O)(=O)C(C)C)c1O` (stereo not drawn) [Compound 120, 1-(4-chloro-2-hydroxy-3-(isopropylsulfonyl)phenyl)-3-(2-ethylcyclopent-2-en-1-yl)urea], the IC50 was at most 10 nM.
Regarding `CC1=CCCC1NC(=O)Nc1ccc(Cl)c(S(=O)(=O)[C@H]2C[C@@H](O)C2)c1O` (stereo partly drawn) [Compound 95, 1-(4-chloro-2-hydroxy-3-((cis-3-hydroxycyclobutyl)sulfonyl)phenyl)-3-(2-methylcyclopent-2-en-1-yl)urea], the IC50 is at most 1 nM.
Regarding `CC1=CCCC1NC(=O)Nc1ccc(Cl)c(S(=O)(=O)C(C)(C)C)c1O` (stereo not drawn) [Compound 100, 1-(3-(tert-butylsulfonyl)-4-chloro-2-hydroxyphenyl)-3-(2-methylcyclopent-2-en-1-yl)urea], the IC50 is at most 10 nM.
Same read-out and setting: under `CC1=CCCC1NC(=O)Nc1ccc(Cl)c(S(=O)(=O)C2CCN3CCCC3C2)c1O` (stereo not drawn) [Compound 109, 1-(4-chloro-2-hydroxy-3-((octahydroindolizin-7-yl)sulfonyl)phenyl)-3-(2-methylcyclopent-2-en-1-yl)urea, trifluoroacetic acid salt] stands at most 10 nM; under `C[C@@]1(S(=O)(=O)c2c(Cl)ccc(NC(=O)N[C@@H]3CCC=C3Cl)c2O)CCOC1` (single isomer, unassigned) [Compound 198], at most 10 nM; under `CC1=CCCC1NC(=O)Nc1ccc(Cl)c(S(=O)(=O)C(C)c2ncccn2)c1O` (stereo not drawn) [Compound 29, 1-(4-chloro-2-hydroxy-3-((1-(pyrimidin-2-yl)ethyl)sulfonyl)phenyl)-3-(2-methylcyclopent-2-en-1-yl)urea, trifluoroacetic acid salt], at most 10 nM.
The same measure, in the same setting: under `CC1=CCC[C@H]1NC(=O)Nc1ccc(Cl)c(S(=O)(=O)N2CCC(F)(F)C2)c1O` [Compound 88, (R)-1-(4-chloro-3-((3,3-difluoropyrrolidin-1-yl)sulfonyl)-2-hydroxyphenyl)-3-(2-methylcyclopent-2-en-1-yl)urea] stands at most 1 nM; under `CO[C@H]1C[C@@H](S(=O)(=O)c2c(Cl)ccc(NC(=O)NC3CCC=C3C)c2O)C1` (stereo partly drawn) [Compound 148, 1-(4-chloro-2-hydroxy-3-((cis-3-methoxycyclobutyl)sulfonyl)phenyl)-3-(2-methylcyclopent-2-en-1-yl)urea], at most 10 nM; under `CC1=CCC[C@H]1NC(=O)Nc1ccc(Cl)c(S(=O)(=O)N2CCC(O)CC2)c1O` [Compound 89, (R)-1-(4-chloro-2-hydroxy-3-((4-hydroxypiperidin-1-yl)sulfonyl)phenyl)-3-(2-methylcyclopent-2-en-1-yl)urea], at most 1 nM.
The same measure, in the same setting: under `CC(c1ccccn1)S(=O)(=O)c1c(Cl)ccc(NC(=O)NC2C=CCC2)c1O` (stereo not drawn) [Compound 24, 1-(4-chloro-2-hydroxy-3-((1-(pyridin-2-yl)ethyl)sulfonyl)phenyl)-3-(cyclopent-2-en-1-yl)urea, trifluoroacetic acid salt] stands at most 10 nM.
On to `CC(c1ncccn1)S(=O)(=O)c1c(Cl)ccc(NC(=O)NC2CCC=C2Cl)c1O` (stereo not drawn) [Compound 30, 1-(4-chloro-2-hydroxy-3-((1-(pyrimidin-2-yl)ethyl)sulfonyl)phenyl)-3-(2-chlorocyclopent-2-en-1-yl)urea], for which the IC50 was at most 10 nM.
For the compound `CC1=CCCC1NC(=O)Nc1ccc(Cl)c(S(=O)(=O)[C@H]2C[C@H](N(C)C)C2)c1O` (stereo partly drawn) [Compound 133, 1-(4-chloro-3-((trans-3-(dimethylamino)cyclobutyl)sulfonyl)-2-hydroxyphenyl)-3-(2-methylcyclopent-2-en-1-yl)urea], the IC50 is at most 10 nM.
The same measure, in the same setting: under `O=C(Nc1ccc(Cl)c(S(=O)(=O)[C@H]2C[C@H](N3CCCC3)C2)c1O)NC1CCC=C1Cl` (stereo partly drawn) [Compound 177, 1-(4-chloro-2-hydroxy-3-((trans-3-(pyrrolidin-1-yl)cyclobutyl)sul-fonyl)phenyl)-3-(2-chlorocyclopent-2-en-1-yl)urea, trifluoroacetic acid salt] stands at most 10 nM.
On to `CC1=CCCC1NC(=O)Nc1ccc(Cl)c(S(=O)(=O)N2CCOCC2)c1O` (stereo not drawn) [Compound 118, 1-(4-chloro-2-hydroxy-3-(morpholinosulfonyl)phenyl)-3-(2-methylcyclopent-2-en-1-yl)urea], for which the IC50 was at most 10 nM.
Same read-out and setting: to `O=C(O)C(F)(F)F.[2H]C([2H])([2H])N1CCC(C)(S(=O)(=O)c2c(Cl)ccc(NC(=O)N[C@@H]3CCC=C3C)c2O)CC1` [Compound 139, (R)-1-(4-chloro-2-hydroxy-3-((4-methyl-1-(d3-methyl)piperidin-4-yl)sulfonyl)phenyl)-3-(2-methylcyclopent-2-en-1-yl)urea, trifluoroacetic acid salt] belongs at most 10 nM; to `CN(C)[C@H]1C[C@H](S(=O)(=O)c2c(Cl)ccc(NC(=O)NC3CCC=C3Cl)c2O)C1` (stereo partly drawn) [Compound 134, 1-(4-chloro-3-((trans-3-(dimethylamino)cyclobutyl)sulfonyl)-2-hydroxyphenyl)-3-(2-chlorocyclopent-2-en-1-yl)urea], at most 10 nM; to `CC(C)(CF)S(=O)(=O)c1c(Cl)ccc(NC(=O)NC2CCC=C2Cl)c1O` (stereo not drawn) [Compound 10, 1-(4-chloro-3-((1-fluoro-2-methylpropan-2-yl)sulfonyl)-2-hydroxyphenyl)-3-(2-chlorocyclopent-2-en-1-yl)urea], at most 10 nM.
With `CCN(CC)S(=O)(=O)c1c(Cl)ccc(NC(=O)NC2CCC=C2C)c1O` (stereo not drawn) [Compound 121, 6-chloro-N,N-diethyl-2-hydroxy-3-(3-(2-methylcyclopent-2-en-1-yl)ureido)benzene-sulfonamide], the IC50 was at most 10 nM.
The same measure, in the same setting: under `CC1=CCC[C@H]1NC(=O)Nc1ccc(Cl)c(S(=O)(=O)C(C)(C)C2COC2)c1O` [Compound 61, (R)-1-(4-chloro-2-hydroxy-3-((2-(oxetan-3-yl)propan-2-yl)sulfonyl)phenyl)-3-(2-methylcyclopent-2-en-1-yl)urea] stands at most 1 nM.
Turning to `CC(C)S(=O)(=O)c1c(Cl)ccc(NC(=O)NC2CCC=C2Cl)c1O` (stereo not drawn) [Compound 21, 1-(4-chloro-2-hydroxy-3-(isopropylsulfonyl)phenyl)-3-(2-chlorocyclopent-2-en-1-yl)urea], the IC50 is at most 1 nM.
Same read-out and setting: to `CC1=C(F)CCC1NC(=O)Nc1ccc(Cl)c(S(=O)(=O)C(C)C)c1O` (stereo not drawn) [Compound 17, 1-(4-chloro-2-hydroxy-3-(isopropylsulfonyl)phenyl)-3-(3-fluoro-2-methylcyclopent-2-en-1-yl)urea] belongs at most 10 nM; to `COC1CCN(S(=O)(=O)c2c(Cl)ccc(NC(=O)NC3CCC=C3C)c2O)CC1` (stereo not drawn) [Compound 154, 1-(4-chloro-2-hydroxy-3-((4-methoxypiperidin-1-yl)sulfonyl)phenyl)-3-(2-methylcyclopent-2-en-1-yl)urea], at most 10 nM.

The test is the same for the next values; noted with them: pIC50 (CXCR2 Tango assay), mean pIC50 of multiple test results; stimulated with 80 nM hCXCL1; reporter gene blue/green emission ratio.
Regarding `CC1=CCC[C@H]1NC(=O)Nc1ccc(Cl)c(S(=O)(=O)C2CCN(C3CCC3)CC2)c1O` [Compound 83, (R)-1-(4-chloro-3-((1-cyclobutylpiperidin-4-yl)sulfonyl)-2-hydroxyphenyl)-3-(2-methylcyclopent-2-en-1-yl)urea trifluoroacetic acid salt], the IC50 is at most 1 nM.
